From patent publication US10947511B2, “Differentiation of human embryonic stem cells into pancreatic endocrine cells using thyroid hormone and/or alk5, an inhibitor of tgf-beta type 1 receptor” (Janssen Biotech, Inc., priority 2012, dated 2021)
“Also recorded” adds a separate entry of the source.

Legend:
[1] = test system: human embryonic stem cell line H1; assay: Real-time PCR of marker genes in H1 cells differentiated as in Example 2, T3 added at Stages 4 through 6; assay type: cell-based
Method: (§1) All primers were purchased from Applied Biosystems.
(§2) Cultures were differentiated into cells expressing markers characteristic of pancreatic endoderm/endocrine precursor cells by the protocol outlined below. • a. […] SD208 is 2-(5-Chloro-2-fluorophenyl)pteridin-4-yl]pyridin-4-yl-amine) having the structure of formula I, and disclosed in Molecular Pharmacology 2007, 72:152-161. SD208 is a 2,4-disubstituted pteridine, ATP-competitive inhibitor of the TGF-βR I kinase.
(§3) In some cultures, 1 μM T3 (T6397, Sigma, MO) was added at Stages 4 through 6. At the end of Stages 4 through 6, the control and treated cultures were analyzed by FACS and immunostaining. Furthermore, mRNA was collected for the control and treated cultures at Stages 2 through 6.

[2] = test system: human embryonic stem cell line H1; assay: Immunostaining for HB9 and NKX6.1 at Stage 6, control vs T3 treated cultures (Example 2); assay type: cell-based
Method: as §1, §2, §3

[3] = test system: human embryonic stem cell line H1; assay: Immunostaining for NKX6.1 and HB9 at Stage 6 day 6, T3 dose response (Example 4); assay type: cell-based; details: 0-1000 nM T3 at Stages 5 and 6, dose dependent
From the text: as §1
Forty-eight hours post-seeding, cultures were washed in incomplete PBS (phosphate buffered saline without Mg or Ca). Cultures were differentiated into cells expressing markers characteristic of pancreatic endoderm/endocrine precursor cells by the protocol outlined below. • a.

[4] = T3 vs T4; cited from earlier work
[5] = in the blood; cited from earlier work
[6] = 1 μM T3 added at Stages 4 through 6, real-time PCR
[7] = 1 μM T3 added at Stages 4 through 6, real-time PCR vs control
[8] = 1 μM T3 addition, real-time PCR

SMILES | insulin expression ([1]; 1 μM T3 added at Stages 4 through 6, at Stage 5, real-time PCR) | NKX2.2 expression [1, 6] | NKX6.1 expression [1, 6] | PDX1 expression [1, 6] | ghrelin expression [1, 7] | glucagon expression [1, 7] | somatostatin expression [1, 7] | CDX2 (intestine marker) expression [1, 8] | SOX2 (stomach marker) expression [1, 8] | albumin (liver marker) expression [1, 8] | number of HB9 positive cells ([2]; Stage 6, T3 treated group vs control) | number of NKX6.1 positive cells showing expression of HB9 ([2]; T3 treated cultures) | number of HB9 positive cells in the NKX6.1 positive pancreatic endoderm precursor cells [3] | potency relative to T4 [4] | half-life relative to T3 [5]
N[C@@H](Cc1cc(I)c(Oc2ccc(O)c(I)c2)c(I)c1)C(=O)O [T3, triiodothyronine] | moderately increasing | significantly decreased | apparently not affecting | apparently not affecting | significantly down regulated | significantly down regulated | significantly down regulated | not affecting | suppressed | suppressed | increases; also recorded: significant increase | increased number | significantly enhanced | three to four times more potent than T4 | –
N[C@@H](Cc1cc(I)c(Oc2cc(I)c(O)c(I)c2)c(I)c1)C(=O)O [T4, thyroxine] | – | – | – | – | – | – | – | – | – | – | – | – | – | – | longer half-life than T3
